The data set in a line: in vitro. The following applies: human, hela cells, % viability.

SMILES strings stand for the structures.

This note sets out measurements from PMC12040169 (PLOS Biology, 2025).

In general, viability refers to a read-out of living cells in per cent, often relative to untreated cells. With `CC(C)(C)OC(=O)N1CCN(c2ccc(C(F)(F)F)c(Cl)n2)CC1` [CBK003030], the viability at 28.5 h, 10 µM came to 88.9%.

On to `COc1ccc2[nH]cc(C3CCN(C(=O)c4cc(C#N)c[nH]4)CC3)c2c1` [CBK305479], for which the viability at 28.5 h, 10 µM was 93.2%.

With `Cc1ccc(C(=O)N(C)C2CCCCC2)cc1C` [CBK083667], the viability at 28.5 h, 10 µM was 137%.

In the case of `CCOc1ccc(N2C(=O)CC(Nc3cc(C(=O)O)ccc3C)C2=O)cc1` (stereo not drawn) [CBK296651], the viability at 28.5 h, 10 µM came to 97.1%.

Turning to `Cc1ccc(S(=O)(=O)Nc2ccc(-c3cn4cccnc4n3)cc2)cc1[N+](=O)[O-]` [CBK268936], the viability at 28.5 h, 10 µM stood at 60.5%.

For `O=C(Nc1ccsc1C(=O)O)c1ccc(Cl)cc1` [CBK076902], the viability at 28.5 h, 10 µM is 96.8%.

`Cc1nonc1NC(=O)CSc1nc2cc(Cl)ccc2[nH]1` [CBK270095]: the viability at 28.5 h, 10 µM worked out at 84.8%.

Take `CCOc1ccccc1CN1CC2CCCN2C[C@@H]1C` (stereo partly drawn) [CBK285435]: the viability at 28.5 h, 10 µM worked out at 94.7%.

`O=C(O)CCC(=O)Nc1ccc(-c2nc3cc(C(=O)c4ccccc4)ccc3[nH]2)cc1` [CBK267401]: the viability at 28.5 h, 10 µM amounted to 100%.

For `O=S(=O)(c1ccc(Cl)cc1)N1CCN(S(=O)(=O)N2CCCCC2)CC1` [CBK267075], the viability at 28.5 h, 10 µM was 96.1%.

As to `CNC(=O)C1(Cc2cccc(-c3cccs3)c2)CCN(C(=O)COc2ccccc2)CC1` [CBK285732], the viability at 28.5 h, 10 µM is 95.5%.

On to `O=C1Nc2ccccc2/C1=C/c1c[nH]cn1` [CBK115386], for which the viability at 28.5 h, 10 µM is 92.8%.

As for `CC(=O)Nc1ccc(CN(C)c2c(C)nc3c(OCC4CCCCC4)cccn23)cc1` [CBK147379], the viability at 28.5 h, 10 µM came out at 93.5%.

`O=C(Nc1ccc(OC(F)(F)F)cc1)c1nn(-c2ncccn2)c2ccccc12` [CBK048510]: the viability at 28.5 h, 10 µM stood at 98.9%.

On to `CC(C)(C)C1=Nn2c(nnc2-c2n[nH]c3c2CCC3)SC1` [CBK287894], for which the viability at 28.5 h, 10 µM was found to be 87.7%.

On to `CCN(CC)CCN1C(=O)c2oc3cc(C)c(C)cc3c(=O)c2C1c1cc(Br)c(O)c(OC)c1` (stereo not drawn) [CBK266846], for which the viability at 28.5 h, 10 µM is 105%.

For the compound `CC(C)(CO)CNc1cncc(-c2cccs2)n1` [CBK065599], the viability at 28.5 h, 10 µM was 88.3%.

Regarding `O=C(CNS(=O)(=O)c1ccc(Cl)c(Cl)c1Cl)N1CCOCC1` [CBK034472], the viability at 28.5 h, 10 µM is 110%.

Regarding `O=c1[nH]nc2c3c(nc(-c4ccncc4)n12)CCCC3` [CBK288029], the viability at 28.5 h, 10 µM was determined as 109%.

With `CCCc1ccc(N(C)C(=O)c2ccc(C(C)(C)C)cc2)cc1` [CBK161612], the viability at 28.5 h, 10 µM amounted to 103%.

With `Cc1nnc(-c2cc(CC(C)C)n(-c3cccc(C(=O)N4CC=CCC4)c3)n2)o1` [CBK114630], the viability at 28.5 h, 10 µM is 91.6%.

With `Fc1ccc(-n2cnnn2)cc1` [CBK027592], the viability at 28.5 h, 10 µM was 110%.

As to `Cc1cc(NCC2CCCO2)n2nc(C)c(-c3ccccc3)c2n1` (stereo not drawn) [CBK304531], the viability at 28.5 h, 10 µM came to 90.5%.

For `NS(=O)(=O)c1ccc(NC(=O)CCC2COc3ccccc3O2)cc1` (stereo not drawn) [CBK267696], the viability at 28.5 h, 10 µM was determined as 87.9%.

Turning to `CC(Oc1cccc2ccccc12)C(=S)N(C)c1ccccc1` (stereo not drawn) [CBK016158], the viability at 28.5 h, 10 µM was determined as 88.2%.

Take `CCOc1ccc(-c2cn(C(=O)Nc3ccccc3)nc2N)cc1` [CBK267317]: the viability at 28.5 h, 10 µM stood at 90.3%.

Consider `O=C1CCCN1c1ccc(CN2CCN(C3CCCC3)C(=O)C2)cc1` [CBK281908], for which the viability at 28.5 h, 10 µM was 96.2%.

As to `CCN(CC)c1ccc(C(=O)Cn2c(=O)n(C(=O)CCCc3ccc(OC)cc3)c3ccccc32)cc1` [CBK106503], the viability at 28.5 h, 10 µM is 89.6%.

Turning to `CCC1C=CCC(C(=O)O)C1C(=O)Nc1ccc(C(=O)N2CCOCC2)cc1` (stereo not drawn) [CBK265798], the viability at 28.5 h, 10 µM is 102%.

As to `O=C(c1ccc(Br)o1)N1CCc2ccc(S(=O)(=O)N3CCOCC3)cc21` [CBK028953], the viability at 28.5 h, 10 µM came out at 100%.

With `O=C(O)CC1C(=O)NCCN1CC(c1ccccc1)c1ccccc1` (stereo not drawn) [CBK286539], the viability at 28.5 h, 10 µM stood at 77.5%.

`O=C(Nc1ccccc1)c1ccc(N2CCN(c3ccccn3)CC2)c(S(=O)(=O)N2CCOCC2)c1` [CBK266810]: the viability at 28.5 h, 10 µM amounted to 91.7%.

`Cn1cc(C2CCCCCN2C(=O)c2ccc(F)cc2)cn1` (stereo not drawn) [CBK284913]: the viability at 28.5 h, 10 µM was 76.8%.

As to `O=c1[nH]c2ncc(-c3ccoc3)nc2n1Cc1cccs1` [CBK064647], the viability at 28.5 h, 10 µM came to 90.3%.

In the case of `COCCC(=O)N1C[C@@H]2C[C@H](C1)c1ccc(NC(=O)Nc3cccc(F)c3)c(=O)n1C2` [CBK289075], the viability at 28.5 h, 10 µM was 84.6%.

As for `COC(=O)[C@H]1CN(C(=O)c2ccco2)C[C@@H]1c1ccc(F)cc1` [CBK283733], the viability at 28.5 h, 10 µM was determined as 85.8%.

In the case of `O=C1CC2(CCN(Cc3ccc(C(F)(F)F)cc3)CC2)CN1` [CBK283359], the viability at 28.5 h, 10 µM was found to be 86.8%.

Turning to `O=C(Cc1ccc(F)cc1)Nc1cccc(-c2noc(-c3ccc(F)cc3)n2)c1` [CBK299821], the viability at 28.5 h, 10 µM is 89%.

Consider `C[C@@H]1C(=O)O[C@H]2[C@H]1CC[C@@]1(C)Cc3sc(NC(=O)CN(C)C)nc3[C@@H](C)[C@H]21` [CBK289431], for which the viability at 28.5 h, 10 µM is 87.3%.

With `O=C(CN(C1CCCCC1)S(=O)(=O)c1ccc(Br)cc1)NCc1ccccn1` [CBK264846], the viability at 28.5 h, 10 µM turned out to be 93.6%.

`Cc1cc2cn([C@H]3C[C@@H](O)[C@@H](CO)O3)c(=O)nc2o1` [CBK201287]: the viability at 28.5 h, 10 µM is 96%.

Turning to `CC(C)Nc1nccnc1SCCN(C)C` [CBK105290], the viability at 28.5 h, 10 µM came to 92.1%.

Take `CCc1ccc(OCC(=O)c2ccc(O)c(CN(C)C)c2O)cc1` [CBK264438C]: the viability at 28.5 h, 10 µM amounted to 116%.

For `O=C(CCN1C(=O)c2ccc(Br)cc2C1=O)N1CCN(Cc2ccccc2)CC1` [CBK269238], the viability at 28.5 h, 10 µM amounted to 104%.

Turning to `CC(C)Nc1nccnc1-c1cccc(O)c1` [CBK037089], the viability at 28.5 h, 10 µM came out at 97.3%.

On to `CCOC(=O)c1cn[nH]c1N` [CBK175217], for which the viability at 28.5 h, 10 µM was determined as 89.4%.

`COc1ccc(CNc2oc(-c3ccccc3)nc2S(=O)(=O)c2ccccc2)cc1` [CBK267669]: the viability at 28.5 h, 10 µM is 105%.

For `COc1ccccc1Oc1ccc(NS(=O)(=O)c2cccc(C(=O)O)c2)cc1` [CBK296728], the viability at 28.5 h, 10 µM stood at 108%.

For the compound `Cc1ccc(-c2nnc(COC(=O)c3cc(O)nc4ccccc34)o2)cc1` [CBK269741], the viability at 28.5 h, 10 µM is 88.9%.

As for `O=C(CC1CCN(C(=O)c2ccc3nsnc3c2)CC1)N1CCN(c2ccccc2)CC1` [CBK286266], the viability at 28.5 h, 10 µM was 85.9%.

`Cc1ccc2nsnc2c1NC(=O)CSc1nccn1C` [CBK269411]: the viability at 28.5 h, 10 µM came out at 104%.

For `Cc1c(C(=O)N2CCNC(=O)C2(C)C)nnn1Cc1ccc(F)cc1F` [CBK305461], the viability at 28.5 h, 10 µM stood at 80.2%.

For the compound `O=C(c1ccccc1F)N1CCN(C2CCN(Cc3ccccc3)CC2)CC1` [CBK263404], the viability at 28.5 h, 10 µM turned out to be 93.3%.

Take `CC(=O)Nc1ccc(NCc2cc(Cl)ccc2OCc2ccc(Cl)cc2Cl)cc1` [CBK078179]: the viability at 28.5 h, 10 µM amounted to 90.8%.

`CC(C)(CN1C(=O)c2ccccc2C1=O)C(O)C(=O)O` (stereo not drawn) [CBK286582]: the viability at 28.5 h, 10 µM came out at 82.3%.

Consider `CCN(CC)CCn1cc(C2CCCN(C)CC2)c2ccccc21` (stereo not drawn) [CBK023788B], for which the viability at 28.5 h, 10 µM was found to be 91.1%.

Take `CN(C)c1ccc(CN2CC[C@H](c3nc4cccc(C(N)=O)c4[nH]3)C2)cc1` [CBK289414]: the viability at 28.5 h, 10 µM came out at 105%.
